The source of these data is US8883782B2, “Spiro-tetracyclic ring compounds as beta-secretase modulators and methods of use” (Amgen Inc., priority 2010, dated 2014).

Test [1] deals with Beta Secretase enzyme (BACE) (Homo sapiens, UniProt P56817). Kind of test: In vitro enzymatic BACE FRET (fluorescence resonance energy transfer) assay. The test is classed as biochemical. The settings on record: average IC50, enzyme assay; read-out: BACE 1 FRET assay. Summed up:
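Buffer 0.05 M acetate pH 4.2, 10% DMSO final, 100 uM genapol (sub-CMC); start with 50 nM FRET substrate; 1 h incubation; Tris stop; fluorescence read.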

Test [2] has as its system Aβ40 in conditioned medium of cells stably expressing Amyloid Precursor Protein (APP). Nature of the test: In vitro BACE cell-based assay (Aβ40 in conditioned medium, sandwich ELISA). The settings on record: Homo sapiens, read-out: HEK cell assay. Summed up:
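Step two: 10-point compound titration added, starting 100 μM or 10 μM, 0.1% DMSO. Step three: medium Aβ40 measured by ELISA, capture 3 h and detection 2 h at 4° C, TRF read.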

[3] abbreviates: HEK293, average IC50, HEK cells.

Like-named read-outs stand apart in the source and are kept apart here. Where only a bound is given, the exact number is not on record here.

Chain of Beta Secretase enzyme (BACE) (P56817 46-501, species assumed): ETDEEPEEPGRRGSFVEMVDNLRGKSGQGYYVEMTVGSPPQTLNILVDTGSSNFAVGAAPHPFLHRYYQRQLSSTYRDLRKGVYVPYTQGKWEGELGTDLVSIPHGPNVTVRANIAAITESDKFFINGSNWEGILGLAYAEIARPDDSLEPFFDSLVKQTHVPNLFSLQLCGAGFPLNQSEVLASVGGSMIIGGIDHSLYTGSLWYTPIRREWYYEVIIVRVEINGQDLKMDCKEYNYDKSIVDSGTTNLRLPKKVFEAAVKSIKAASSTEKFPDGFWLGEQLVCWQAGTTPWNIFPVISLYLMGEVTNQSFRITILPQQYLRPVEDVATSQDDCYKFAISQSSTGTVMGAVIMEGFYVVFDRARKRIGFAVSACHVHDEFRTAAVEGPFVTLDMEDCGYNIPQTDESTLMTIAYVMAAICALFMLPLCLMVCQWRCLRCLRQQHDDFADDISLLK

Turning to `NC1=NC2(CS1)c1cc(-c3cccnc3F)ccc1Oc1c2cc(-c2cccnc2F)nc1F` (centres unmarked) [Example 682, 1-fluoro-3,7-bis(2-fluoro-3-pyridinyl)spiro[chromeno[2,3-c]pyridine-5,4′-[1,3]thiazol]-2′-amine], the IC50 worked out at 0.9 nM in test [1] and 74 nM in test [2] (setting [3]).
On the same counts, the results for `CC1(C#Cc2cc3c(cn2)Oc2ccc(-c4cccnc4F)cc2C32CSC(N)=N2)COC1` (centres unmarked) [Example 683, 7-(2-fluoro-3-pyridinyl)-3-((3-methyl-3-oxetanyl)ethynyl)spiro[chromeno[2,3-c]pyridine-5,4′-[1,3]thiazol]-2′-amine] are 1.2 nM and 19 nM.
On the same counts, the results for `NC1=N[C@@]2(CO1)c1cc(-c3cccnc3)ccc1Oc1c(F)cc(-n3cccn3)cc12` [Example 684, (4S)-4′-fluoro-2′-(1H-pyrazol-1-yl)-7′-(3-pyridyl)spiro[1,3-oxazole-4,9′-xanthen]-2-amine] are 3.8 nM and 34 nM.
`CC(C)(C)C#Cc1cc2c(nc1F)Oc1ccc(-c3cccnc3F)cc1[C@@]21COC(N)=N1` [Example 685, (5S)-3-(3,3-dimethyl-1-butyn-1-yl)-2-fluoro-7-(2-fluoro-3-pyridinyl)spiro[chromeno[2,3-b]pyridine-5,4′-[1,3]oxazol]-2′-amine]: the IC50 in test [1] is 0.4 nM; in test [2] (setting [3]), 11 nM.
For the compound `NC1=N[C@@]2(CO1)c1cc(-c3cccnc3F)ccc1Oc1c(F)cc(-c3ccnnc3)cc12` [Example 686, (4S)-4′-fluoro-7′-(2-fluoro-3-pyridinyl)-2′-(4-pyridazinyl)spiro[1,3-oxazole-4,9′-xanthen]-2-amine], the IC50 in test [1] worked out at 0.8 nM; in test [2] (setting [3]), 12 nM.
With `COc1cncc(-c2ccc3c(c2)[C@@]2(COC(N)=N2)c2cc(-c4ncccn4)ncc2O3)c1` [Example 687, (5S)-7-(5-methoxy-3-pyridinyl)-3-(2-pyrimidinyl)spiro[chromeno[2,3-c]pyridine-5,4′-[1,3]oxazol]-2′-amine], the IC50 in test [1] was 80.4 nM; in test [2] (setting [3]) it was 853 nM.
`NC1=N[C@@]2(CO1)c1cc(O)ccc1Oc1ncc(Br)cc12` [Example 689, (5S)-2′-amino-3-bromospiro[chromeno[2,3-b]pyridine-5,4′-[1,3]oxazol]-7-ol]: the IC50 turned out to be 4070 nM in test [1] and 10000 nM in test [2] (setting [3]).
With `CC1(C#Cc2cnc3c(c2)[C@]2(COC(N)=N2)c2cc(O)ccc2O3)COC1` [Example 690, (5S)-2′-amino-3-((3-methyl-3-oxetanyl)ethynyl)spiro[chromeno[2,3-b]pyridine-5,4′-[1,3]oxazol]-7-ol], the IC50 came out at 346 nM in test [1] and 2150 nM in test [2] (setting [3]).
The matching figures for `NC1=N[C@@]2(CO1)c1cc(-c3cccnc3F)ccc1Oc1c(F)cc(-n3cccn3)cc12` [Example 691, (4S)-4′-fluoro-7′-(2-fluoro-3-pyridinyl)-2′-(1H-pyrazol-1-yl)spiro[1,3-oxazole-4,9′-xanthen]-2-amine]: 2 nM and 63 nM.
Regarding `NC1=N[C@@]2(CO1)c1cc(-c3cncnc3)ccc1Oc1c(F)cc(-n3cccn3)cc12` [Example 692, (4S)-4′-fluoro-2′-(1H-pyrazol-1-yl)-7′-(5-pyrimidinyl)spiro[1,3-oxazole-4,9′-xanthen]-2-amine], the IC50 in test [1] came out at 3.7 nM; in test [2] (setting [3]), 74 nM.
Regarding `CN(C)c1cc2c(cn1)Oc1ccc(-c3cccnc3F)cc1C21CSC(N)=N1` (centres unmarked) [Example 693, 7-(2-fluoro-3-pyridinyl)-N~3~,N~3~-dimethylspiro[chromeno[2,3-c]pyridine-5,4′-[1,3]thiazole]-2′,3-diamine], the figures for the IC50 in test [1] and in test [2] (setting [3]) were 10.5 nM and 237 nM, respectively.
For `NC1=N[C@@]2(CO1)c1cc(-c3cccnc3F)ccc1Oc1c2cc(N2CCC(F)(F)CC2)nc1F` [Example 698, (5S)-3-(4,4-difluoro-1-piperidinyl)-1-fluoro-7-(2-fluoro-3-pyridinyl)spiro[chromeno[2,3-c]pyridine-5,4′-[1,3]oxazol]-2′-amine], the values for the IC50 in test [1] and in test [2] (setting [3]) were 0.3 nM and 6 nM, respectively.
As to `COc1ccc2c(c1)[C@@]1(COC(N)=N1)c1cc(C3(O)COC3)cc(F)c1O2` [Example 708, (S)-3-(2-amino-5′-fluoro-2′-methoxy-5H-spiro[oxazole-4,9′-xanthene]-7′-yl)oxetan-3-ol], the IC50 in test [1] was 13300 nM; in test [2] (setting [3]) it was at least 10000 nM.
As to `COc1ccc2c(c1)[C@@]1(COC(N)=N1)c1cc(C3(F)COC3)cc(F)c1O2` [Example 709, (S)-4′-fluoro-2′-(3-fluorooxetan-3-yl)-7′-methoxy-5H-spiro[oxazole-4,9′-xanthen]-2-amine], the IC50 in test [1] is 4560 nM; in test [2] (setting [3]), at least 10000 nM.
As for `COc1nc(Cl)cc2c1Oc1ccc(Br)cc1[C@@]21COC(N)=N1` [Example 710, (S)-7-bromo-3-chloro-1-methoxy-5′H-spiro[chromeno[2,3-c]pyridine-5,4′-oxazol]-2′-amine], the IC50 in test [1] is 6890 nM; in test [2] (HEK293, average IC50), at least 10000 nM.
Turning to `NC1=N[C@@]2(CO1)c1cc(-c3cccnc3O)ccc1Oc1cnc(-c3ccnc(F)c3)cc12` [Example 712, (S)-3-(2′-amino-3-(2-fluoropyridin-4-yl)-5′H-spiro[chromeno[2,3-c]pyridine-5,4′-oxazole]-7-yl)pyridin-2-ol], the IC50 came to 69.7 nM in test [1] and 1090 nM in test [2] (HEK293, average IC50).
With `NC1=N[C@@]2(CO1)c1cc(-c3cccnc3F)ccc1Oc1nc(F)c(N3CCOCC3)cc12` [Example 714, (S)-2-fluoro-7-(2-fluoropyridin-3-yl)-3-morpholino-5′H-spiro[chromeno[2,3-b]pyridine-5,4′-oxazol]-2′-amine], the IC50 in test [1] was determined as 3.6 nM; in test [2] (setting [3]) it was 55 nM.
The matching figures for `CC(C)(C)OCc1cnc2c(c1)[C@]1(COC(N)=N1)c1cc(-c3cccnc3F)c(F)cc1O2` [Example 716, (S)-3-(tert-butoxymethyl)-8-fluoro-7-(2-fluoropyridin-3-yl)-5′H-spiro[chromeno[2,3-b]pyridine-5,4′-oxazol]-2′-amine]: 6.5 nM and 132 nM.
For `CC(C)(F)C#Cc1cnc2c(c1)[C@]1(COC(N)=N1)c1cc(-c3cncnc3)c(F)cc1O2` [Example 717, (S)-8-fluoro-3-(3-fluoro-3-methylbut-1-ynyl)-7-(pyrimidin-5-yl)-5′H-spiro[chromeno[2,3-b]pyridine-5,4′-oxazol]-2′-amine], the IC50 in test [1] turned out to be 3.8 nM; in test [2] (setting [3]) it was 212 nM.
For `COCC1SC(N)=NC12c1cc(-c3cccnc3F)ccc1Oc1c(F)cc(OC)cc12` [Example 720, (4R)-4′-fluoro-7′-(2-fluoro-3-pyridinyl)-2′-methoxy-5-(methoxymethyl)spiro[1,3-thiazole-4,9′-xanthen]-2-amine, (4S)-4′-fluoro-7′-(2-fluoro-3-pyridinyl)-2′-methoxy-5-(methoxymethyl)spiro[1,3-thiazole-4,9′-xanthen]-2-amine], the IC50 in test [1] is 67 nM; in test [2] (HEK293, average IC50), 1370 nM.
For the compound `COCC1SC(N)=N[C@]12c1cc(-c3cccnc3F)ccc1Oc1cnc(-c3ccnc(F)c3)cc12` (stereo partly drawn) [Example 722, (5S)-7-(2-fluoro-3-pyridinyl)-3-(2-fluoro-4-pyridinyl)-5′-(methoxymethyl)spiro[chromeno[2,3-c]pyridine-5,4′-[1,3]thiazol]-2′-amine], the IC50 was determined as 335 nM in test [1] and 5930 nM in test [2] (setting [3]).
As for `CC#Cc1cncc(-c2ccc3c(c2)[C@@]2(COC(N)=N2)c2cc(OC)cc(F)c2O3)n1` [Example 723, (4S)-4′-fluoro-2′-methoxy-7′-(6-(1-propyn-1-yl)-2-pyrazinyl)spiro[1,3-oxazole-4,9′-xanthen]-2-amine], the IC50 came out at 92.6 nM in test [1] and 958 nM in test [2] (HEK293, average IC50).
Regarding `NC1=N[C@@]2(CO1)c1cc(Oc3cccc(Cl)n3)ccc1Oc1c(F)cc(C3=CCOCC3)cc12` [Example 725, (4S)-7′-((6-chloro-2-pyridinyl)oxy)-2′-(3,6-dihydro-2H-pyran-4-yl)-4′-fluorospiro[1,3-oxazole-4,9′-xanthen]-2-amine], the IC50 was 22.7 nM in test [1] and 1920 nM in test [2] (HEK293, average IC50).
For `CC1(C#Cc2cnc3c(c2)[C@]2(CSC(N)=N2)c2cc(-c4cnccc4F)ccc2O3)COC1` [Example 727, (5S)-7-(4-fluoro-3-pyridinyl)-3-((3-methyl-3-oxetanyl)ethynyl)spiro[chromeno[2,3-b]pyridine-5,4′-[1,3]thiazol]-2′-amine], the IC50 in test [1] stood at 4.1 nM; in test [2] (HEK293, average IC50), 128 nM.
Regarding `NC1=N[C@@]2(CS1)c1cc(-c3cccnc3F)ccc1Oc1ncc(-c3ncccn3)cc12` [Example 728, (5S)-7-(2-fluoro-3-pyridinyl)-3-(2-pyrimidinyl)spiro[chromeno[2,3-b]pyridine-5,4′-[1,3]thiazol]-2′-amine], the IC50 in test [1] came to 3.5 nM; in test [2] (HEK293, average IC50), 80 nM.
With `NC1=N[C@@]2(CS1)c1cc(-c3cccnc3F)ccc1Oc1ncc(C3CCOCC3)cc12` [Example 729, (5S)-7-(2-fluoro-3-pyridinyl)-3-(tetrahydro-2H-pyran-4-yl)spiro[chromeno[2,3-b]pyridine-5,4′-[1,3]thiazol]-2′-amine], the IC50 in test [1] came out at 6.8 nM; in test [2] (HEK293, average IC50), 43 nM.
In the case of `CC#Cc1cncc(-c2ccc3c(c2)[C@@]2(CSC(N)=N2)c2cc(-c4cncc(C#CC)c4)cnc2O3)c1` [Example 730, (5S)-3,7-bis(5-(1-propyn-1-yl)-3-pyridinyl)spiro[chromeno[2,3-b]pyridine-5,4′-[1,3]thiazol]-2′-amine], the IC50 in test [1] was determined as 1.8 nM; in test [2] (HEK293, average IC50), 171 nM.
Take `NC1=N[C@@]2(CO1)c1cc(-c3cccnc3F)ccc1Oc1ncc(-c3cccnc3F)cc12` [Example 732, (5S)-3,7-bis(2-fluoro-3-pyridinyl)spiro[chromeno[2,3-b]pyridine-5,4′-[1,3]oxazol]-2′-amine]: the IC50 in test [1] amounted to 2 nM; in test [2] (HEK293, average IC50), 3 nM.
